Patent US8440417B2, “Method for assaying compounds or agents for ability to displace potent ligands of hematopoietic prostaglandin D synthase” (Cayman Chemical Company, Incorporated, priority 2008, dated 2013)
Read-outs that look alike come from different tables or passages of the source.

Key:
H-PGDS [1] = target: T1, H-PGDS (Homo sapiens, UniProt O60760); conditions: order of magnitude in words; cited from earlier work
MBP-H-PGDS fusion enzyme = MBP-H-PGDS fusion enzyme (Homo sapiens, UniProt O60760); assay: MBP-H-PGDS fluorescence polarization (FP) displacement assay; assay type: binding; conditions: detection analyte Compound 20; mean ± spread, N in cell; read-out: MBP-H-PGDS FP Assay: test compound IC50
Experimental: Detection analyte and H-PGDS-MBP fusion enzyme were incubated in the presence of reduced glutathione (5 mM) for 30-60 minutes at room temperature and FP was measured using a TECAN SAFIRE 2 plate reader equipped with absorbance, fluorescence, fluorescence polarization and FRET capabilities. Assays were performed in 96-well microtiter plates in 100 μL of total sample volume. Excitation and emission wavelengths appropriate for the employed detection analyte were used.
H-PGDS-Maltose binding protein (MBP; 100 μl, 0.5 mg/ml) fusion (MBP-H-PGDS fusion) (FIG. 6) was diluted with 1×FP buffer (900 μL).
Into a 50 mL conical tube was added the H-PGDS 1×FP buffer (18.65 mL), H-PGDS FP fluorescent probe—green (138 μL), MBP-H-PGDS fusion dilution (880 μL), and glutathione solution (1,250 μL).
Assay cocktail (47.5 μL) was added to each plate well.
Test compound solutions (2.5 μL) were added to the wells. […] The IC50 for a particular test compound was obtained by performing a full concentration titration versus a full concentration titration of positive control. Comparison of a single concentration of a test compound to the maximum binding well provided an assessment of the relative affinity of the test compound for MBP-H-PGDS.
The plate was covered and incubated for 60-90 minutes at room temperature. The FP signal is stable for at least two hours.
Plates were read with excitation and emission wavelengths of 470 nm and 530 nm (for detection analyte comprising the fluorescein fluorophore), respectively.
fluorescence polarization of a molecule is defined as: Polarization (mP)=1,000×(Iparallel−Iperpendicular)/(Iparallel+Iperpendicular) where Iparallel is the parallel emission intensity measurement and Iperpendicular is the perpendicular emission intensity measurement.
The clone was then transformed into the expression strain BL21 (DE3) star cells and a glycerol stock was generated. The expected size is 66.29 kDa.

[2] = test system: PGD2 levels in guinea pig lung tissues; conditions: chronic treatment; Matsushita et al. 1998; cited from earlier work
H-PGDS [3] = target: T1, H-PGDS; conditions: [1-14C]PGH2 to [1-14C]PGD2, RIA; Aritake et al. 2006; read-out: Reported H-PGDS inhibition IC50; cited from earlier work
H-PGDS [4] = target: T1, H-PGDS; conditions: Taiho poster / patent application, method not stated; read-out: Reported H-PGDS inhibition IC50; cited from earlier work
H-PGDS [5] = target: T1, H-PGDS; conditions: GSH-MCB conjugation, fluorometry; Evotec WO 2008/122787, AstraZeneca J. Med. Chem. 2008; read-out: Reported H-PGDS inhibition IC50; cited from earlier work

Sequence of MBP-H-PGDS fusion enzyme (O60760 2-199, looked up): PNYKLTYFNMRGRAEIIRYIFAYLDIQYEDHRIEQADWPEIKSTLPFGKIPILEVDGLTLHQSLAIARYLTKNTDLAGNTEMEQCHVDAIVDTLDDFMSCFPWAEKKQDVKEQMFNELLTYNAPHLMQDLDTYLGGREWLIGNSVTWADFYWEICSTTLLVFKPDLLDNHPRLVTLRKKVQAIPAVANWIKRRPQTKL
T1 sequence (O60760 whole entry, species assumed, the tested form may be a part): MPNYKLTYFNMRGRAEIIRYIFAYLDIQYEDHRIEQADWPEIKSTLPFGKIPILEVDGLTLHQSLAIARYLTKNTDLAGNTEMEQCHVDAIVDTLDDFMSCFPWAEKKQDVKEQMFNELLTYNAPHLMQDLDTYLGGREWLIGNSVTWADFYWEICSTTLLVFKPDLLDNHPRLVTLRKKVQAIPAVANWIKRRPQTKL

Row | SMILES | IC50 (MBP-H-PGDS fusion enzyme) | further results
1 | COc1ccc(/C=C/C(=O)Nc2ccccc2C(=O)O)cc1OC [Tranilast] | – | IC50 against H-PGDS in known in vitro assays (H-PGDS [1]): micromolar
2 | c1ccc(C(OC2CCN(CCCc3nnn[nH]3)CC2)c2ccccc2)cc1 | 15000 nM | IC50 against H-PGDS in known in vitro assays (H-PGDS [1]): micromolar; PGD2 levels in guinea pig lung tissues [2]: reduce PGD2 levels; IC50 (H-PGDS [3]): 6000 nM
3 | Cc1nc(-c2cccc(F)c2)sc1C(=O)NCc1ccccc1 [N-benzyl-2-(3-fluorophenyl)-4-methylthiazole-5-carboxamide] | 900 ± 140 nM | –
4 | O=C(NC1CCN(Cc2ccccc2)CC1)c1ccc(-c2ccccc2)nc1 | 30 nM | –
5 | Cc1[nH]c(C(=O)CCCc2ccccn2)c(C)c1-c1nc2cc(C(=O)c3ccccc3)ccc2[nH]1 | 25 ± 7 nM | IC50 (H-PGDS [4]): 72 nM
6 | O=C(NCCNc1ccccc1)c1cnc(-c2ccccc2)nc1 [2-phenyl-N-(2-(phenylamino)ethyl)pyrimidine-5-carboxamide] | 375 ± 180 nM | –
7 | O=C(NCc1ccccc1)c1cnc(-c2ccccc2)nc1 | 125 nM | –
8 | c1ccc(-c2ncc(-c3cc[nH]n3)s2)cc1 | 438 ± 265 nM | –
9 | COc1ccc(CNC(=O)c2ccc(-c3ccccc3)nc2)cc1OC [N-(3,4-dimethoxybenzyl)-6-phenylnicotinamide] | 575 ± 460 nM | –
10 | O=C(NC1CCN(Cc2ccccc2)CC1)c1cnc(-c2ccccc2)nc1 | 50 ± 14 nM | –
11 | O=C(NC1CCN(Cc2ccccc2)CC1)c1ccc(-c2cccc(F)c2)nc1 | 30 nM | –
12 | O=C(c1cnc(-c2ccccc2)nc1)N1CCNCC1 [(2-phenylpyrimidin-5-yl)(piperazin-1-yl)methanone] | 250000 nM | –
13 | Cc1ccc2nc(NC(=O)N3CCN(C(=O)c4cccc(F)c4)CC3)sc2c1 | 308 ± 11 nM | IC50 (H-PGDS [5]): 1 to 10 nM
14 | O=C(Nc1ccc(N2CCOCC2)cc1)c1cnc(Oc2ccccc2)nc1 | 38 ± 11 nM | IC50 (H-PGDS [4]): 190 nM
15 | NCCNS(=O)(=O)c1cccc(CNC(=O)c2cnc(-c3ccccc3)nc2)c1 [Compound 19, N-(3-(N-(2-aminoethyl)sulfamoyl)benzyl)-2-phenylpyrimidine-5-carboxamide] | 200 to 300 nM | –
